This is an account of results in patent publication US20240343694A1, “PYRIMIDINE DERIVATIVE, METHOD FOR PREPARING SAME, AND PHARMACEUTICAL COMPOSITION FOR PREVENTING OR TREATING CANCER COMPRISING SAME AS ACTIVE INGREDIENT” (KOREA RESERARCH INSTITUTE OF CHEMICAL TECHNOLOGY, priority 2021, published 2024).

pIC50: −log10 of the molar value. A value given as a limit tells only on which side of the number the result lay.

For one assay, the target named is HER2 A775_G776insYVMA (Homo sapiens (Human), UniProt P04626, INS775YVMA). Put plainly: HTRF inhibitory activity against HER2 mutant enzyme. Conditions: recombinant enzyme, 37° C. for 2 hours. Type of assay: biochemical. On the procedure:
The activity of the compounds of the present invention against HER mutant enzymes was measured using the HTRF system purchased by Cisbio as follows. As a HER2 mutant enzyme, the HER2 A775_G776insYVMA mutant enzyme was used by purchasing a recombinant protein provided by Carna Biosciences.
The composition of the assay buffer used for activity measurement was 50 mM tris-HCl pH 7.5, 100 mM NaCl, 7.5 mM MgCl2, 3 mM KCl, 0.01% tween 20, 0.1% BSA, and 1 mM DTT. In addition thereto, the enzymatic reaction was performed using a peptide substrate labeled with ATP at a concentration of […] and biotin at a concentration of […]. The analysis of the activity inhibitory effect of the compounds on HER2 A775_G776insYVMA mutation was performed according to the following method. • Component 1:4 μL of HER2 A775_G776insYVMA mutant enzyme • Component 2:2 μL of compound solution • Component 3:4 μL of ATP and a biotin labeled peptide
The enzyme reaction begins by first mixing component 1 and component 2 and then adding component 3 thereto. After the reaction at 37° C. for 2 hours, […] of a measurement solution consisting of streptavidin-XL665 and a europium-labeled anti-phosphotyrosine antibody purchased from Cisbio was added to the enzyme reaction solution and reacted at room temperature for 1 hour. […] The measured values at 7 compound concentrations were analyzed using the Prism program (version 5.01, Graphpad Software, Inc.), and the IC50 (μM) values, which are measures of the compounds' inhibitory ability, were calculated.
Background: Time-resolved FRET reads energy transfer from a long-lived donor to a nearby acceptor.

In another assay the target is EGFR del19 (Homo sapiens (Human), UniProt P00533, DEL746-750). Put plainly: HTRF inhibitory activity against EGFR mutant enzyme (EGFR del19). Type of assay: biochemical. As to conditions: recombinant enzyme, 37° C. for 2 hours. The protocol:
(§1) The activity of the compounds of the present invention against EGFR mutant enzymes was measured using the HTRF system purchased from Cisbio as follows. For an EGFR mutant enzyme, the EGFR del19 enzyme was a recombinant protein purchased from Carna Biosciences, and the EGFR A763_Y764insFHEA enzyme was a recombinant protein purchased from SignalChem, respectively.
(§2) The composition of the assay buffer used for activity measurement was 50 mM tris-HCl pH 7.5, 100 mM NaCl, 7.5 mM MgCl2, 3 mM KCl, 0.01% tween 20, 0.1% BSA, and 1 mM DTT. An enzymatic reaction was performed using a peptide substrate labeled with ATP at a concentration of […] and biotin at a concentration of […]. The analysis of the inhibitory effect of the compounds on EGFR activity was performed according to the following method. • Component 1:4 μL of EGFR mutant enzyme • Component 2:2 μL of compound solution • Component 3:4 μL of ATP and a biotin labeled peptide
(§3) The enzyme reaction begins by first mixing component 1 and component 2 and then adding component 3 thereto. After the reaction at 37° C. for 2 hours, […] of a measurement solution consisting of streptavidin-XL665 and a europium-labeled anti-phosphotyrosine antibody purchased from Cisbio was added to the enzyme reaction solution and reacted at room temperature for 1 hour. Finally, the ratio of fluorescence values at 615 nm and 665 nm was measured using Perkin-Elmer's Envision instrument to calculate enzyme activity and confirm the inhibitory ability of the compounds. The measured values at 7 compound concentrations were analyzed using the Prism program (version 5.01, Graphpad Software, Inc.), and the IC50 (μM) values, which are measures of the compounds' inhibitory activity, were calculated.

In another assay the target is EGFR A763_Y764insFHEA (Homo sapiens (Human), UniProt P00533, INS763FHEA). As to the kind of experiment: HTRF inhibitory activity against EGFR mutant enzyme (EGFR A763_Y764insFHEA). Type of assay: biochemical. Conditions: recombinant enzyme, 37° C. for 2 hours. On the procedure: as §1, §2, §3
Chain of EGFR A763_Y764insFHEA (P00533 other isoform, or with tags, fused parts or gaps del 1-694/ins FHEA behind 763 limits assumed): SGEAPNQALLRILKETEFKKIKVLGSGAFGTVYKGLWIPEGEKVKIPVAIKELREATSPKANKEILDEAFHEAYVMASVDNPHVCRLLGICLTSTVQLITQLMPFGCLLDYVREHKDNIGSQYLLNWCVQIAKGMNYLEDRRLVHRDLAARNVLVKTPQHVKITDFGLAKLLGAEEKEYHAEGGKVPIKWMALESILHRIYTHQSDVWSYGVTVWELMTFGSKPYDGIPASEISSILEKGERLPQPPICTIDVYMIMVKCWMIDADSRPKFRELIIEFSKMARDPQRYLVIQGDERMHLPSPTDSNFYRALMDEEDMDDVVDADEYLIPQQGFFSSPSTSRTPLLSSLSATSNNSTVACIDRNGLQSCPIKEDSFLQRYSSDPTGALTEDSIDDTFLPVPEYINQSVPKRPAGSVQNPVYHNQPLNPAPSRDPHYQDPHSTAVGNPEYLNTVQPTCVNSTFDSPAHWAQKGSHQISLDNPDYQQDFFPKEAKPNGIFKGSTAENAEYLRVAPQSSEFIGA
Assay [1] has as its system Ba/F3 HER2 A775_G776insYVMA. Put plainly: Growth inhibition of Ba/F3 HER2 mutant cells (CellTiter-Glo). Type of assay: cell-based. As to conditions: Mus musculus, BaF3, 72 hours. The protocol: The activity of the compounds of the present invention against Ba/F3 HER2 A775_G776insYVMA and Ba/F3 HER2 G776delinsVC mutant cell lines was measured using the CellTiter-Glo system purchased from Promega as follows. CellTiter-Glo assay is a method to measure cell viability by monitoring ATP present in cells. Ba/F3 HER2 A775_G776insYVMA and Ba/F3 HER2 G776delinsVC mutant cell lines were purchased from Crown Biosciences. Ba/F3 HER2 A775_G776insYVMA and Ba/F3 HER2 G776delinsVC mutant cell lines were cultured in RPMI containing 10% FBS and 1% penicillin-streptomycin with 1 μg/mL of puromycin in a CO2 incubator at 37° C.
(§4) The analysis of the ability of the compounds to inhibit the growth of HER2 mutant cells was performed according to the following method. 1,000 cells/100 μL were seeded in a 96-well cell culture plate, and 24 hours thereafter, the compounds represented by Formula 1 were treated with 0 μM, 0.01 μM, 0.03 μM, 0.1 μM, 0.3 μM, 1 μM, 3 μM, and 10 μM. After reacting for 72 hours, the plate treated with the compounds were left at room temperature for 30 minutes, 100 μL of a reagent was added thereto, and then shaken at room temperature for 10 minutes. Finally, using equipment, the ratio of […] was measured to confirm the cell growth inhibition ability of the compounds. The measured values at 8 compound concentrations were analyzed using the Prism program (version 5.01, Graphpad Software, Inc.), and the IC50 (μM) values, which are measures of the compounds' inhibitory ability, were calculated.
On the technique in general: Cellular ATP, detected with luciferase, serves as a proxy for viable cell number.

Assay [2] concerns Ba/F3 EGFR V769_D770insASV. Put plainly: Growth inhibition of Ba/F3 EGFR mutant cells (CellTiter-Glo). Type of assay: cell-based. As to conditions: 72 hours. On the procedure:
(§5) The activity of the compounds of the present invention against Ba/F3 EGFR V769_D770insASV and Ba/F3 EGFR D770_N771insSVD mutant cell lines was measured using the CellTiter-Glo system purchased from Promega as follows. CellTiter-Glo assay is a method to measure cell viability by monitoring ATP present in cells. Ba/F3 EGFR V769_D770insASV and Ba/F3 EGFR D770_N771insSVD mutant cell lines were purchased from Crown Biosciences. Ba/F3 EGFR V769_D770insASV and Ba/F3 EGFR D770_N771insSVD mutant cell lines were cultured in RPMI containing 10% FBS and 1% penicillin-streptomycin with 1 μg/mL of puromycin in a 5% CO2 incubator at 37° C.
as §4, with “growth of EGFR mutant cells” for “growth of HER2 mutant cells”, “μM. After incubating for 72” for “μM. After reacting for 72”, “reagent was further added thereto,” for “reagent was added thereto,”

Assay [3] concerns Ba/F3 EGFR D770_N771insSVD. Described as above. Type of assay: cell-based. As to conditions: Ba/F3 EGFR-D770-N771ins_SVD, 72 hours. On the procedure: as §5
as §4, with “growth of EGFR mutant cells” for “growth of HER2 mutant cells”, “μM. After incubating for 72” for “μM. After reacting for 72”, “reagent was further added thereto,” for “reagent was added thereto,”

Chain of EGFR del19 (P00533 other isoform, or with tags, fused parts or gaps del 1-668/del 746-750 limits assumed): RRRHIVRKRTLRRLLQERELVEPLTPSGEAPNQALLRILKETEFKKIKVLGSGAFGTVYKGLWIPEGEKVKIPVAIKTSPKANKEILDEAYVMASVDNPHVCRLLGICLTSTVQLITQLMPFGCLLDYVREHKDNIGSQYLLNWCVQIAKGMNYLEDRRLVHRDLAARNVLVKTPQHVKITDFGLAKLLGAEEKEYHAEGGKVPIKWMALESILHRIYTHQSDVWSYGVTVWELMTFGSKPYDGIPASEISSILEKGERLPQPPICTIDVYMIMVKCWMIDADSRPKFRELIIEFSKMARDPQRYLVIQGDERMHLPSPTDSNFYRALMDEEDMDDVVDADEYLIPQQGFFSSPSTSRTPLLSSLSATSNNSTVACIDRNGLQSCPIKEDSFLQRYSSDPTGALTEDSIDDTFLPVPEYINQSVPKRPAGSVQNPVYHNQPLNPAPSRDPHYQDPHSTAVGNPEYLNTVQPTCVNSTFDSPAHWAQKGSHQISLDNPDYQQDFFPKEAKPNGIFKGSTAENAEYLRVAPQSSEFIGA
Chain of HER2 A775_G776insYVMA (P04626 other isoform, or with tags, fused parts or gaps del 1-675/ins YVMA behind 775 limits assumed): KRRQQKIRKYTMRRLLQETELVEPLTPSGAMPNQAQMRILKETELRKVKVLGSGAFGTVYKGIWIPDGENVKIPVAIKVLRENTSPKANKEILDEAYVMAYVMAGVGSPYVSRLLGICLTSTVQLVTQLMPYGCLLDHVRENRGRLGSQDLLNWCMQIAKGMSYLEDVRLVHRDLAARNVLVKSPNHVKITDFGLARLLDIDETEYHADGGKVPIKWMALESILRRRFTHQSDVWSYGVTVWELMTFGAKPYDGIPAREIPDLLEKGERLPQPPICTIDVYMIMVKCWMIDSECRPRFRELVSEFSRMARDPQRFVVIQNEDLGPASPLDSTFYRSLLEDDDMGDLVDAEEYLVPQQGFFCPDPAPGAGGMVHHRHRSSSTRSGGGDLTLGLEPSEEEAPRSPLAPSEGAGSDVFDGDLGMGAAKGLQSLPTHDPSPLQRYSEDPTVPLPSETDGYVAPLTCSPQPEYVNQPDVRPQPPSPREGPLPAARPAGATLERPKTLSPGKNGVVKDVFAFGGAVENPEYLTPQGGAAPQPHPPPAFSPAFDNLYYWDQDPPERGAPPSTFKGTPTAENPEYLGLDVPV

As for `C=CC(=O)Nc1cc(Nc2ncc(Cl)c(Nc3ccccc3NS(=O)(=O)CCC)n2)c(OC)cc1N(C)CCN(C)C` [Example 1, N-(5-((5-chloro-4-((2-(propylsulfonamido)phenyl)amino)pyrimidin-2-yl)amino)-2-((2-(dimethylamino)ethyl)(methyl)amino)-4-methoxyphenyl)acrylamide], the pIC50 – broadly, the IC50 on a negative log10 scale, so that one unit is a factor of ten – is 6.85 on HER2 A775_G776insYVMA, > 9.00 at EGFR del19, 8.40 at EGFR A763_Y764insFHEA and 7.30 to 7.52 in assay [1].
On to `C=CC(=O)Nc1cc(Nc2ncc(Cl)c(Nc3ccccc3NS(=O)(=O)c3ccccc3)n2)c(OC)cc1N(C)CCN(C)C` [Example 2, N-(5-((5-chloro-4-((2-(phenylsulfonamido)phenyl)amino)pyrimidin-2-yl)amino)-2-((2-(dimethylamino)ethyl)(methyl)amino)-4-methoxyphenyl)acrylamide], for which the pIC50 on HER2 A775_G776insYVMA is 6.51; at EGFR del19 it was > 9.00; at EGFR A763_Y764insFHEA, 8.52; in assay [1], 7.30 to 7.52.
As to `C=CC(=O)Nc1cc(Nc2ncc(Cl)c(Nc3ccccc3NS(=O)(=O)c3ccc(C)cc3)n2)c(OC)cc1N(C)CCN(C)C` [Example 3, N-(5-((5-chloro-4-((2-((4-methylphenyl)sulfonamido)phenyl)amino)pyrimidin-2-yl)amino)-2-((2-(dimethylamino)ethyl)(methyl)amino)-4-methoxyphenyl)acrylamide], the negative logarithm of the IC50 (pIC50) at HER2 A775_G776insYVMA was 6.35; on EGFR del19, > 9.00; at EGFR A763_Y764insFHEA it was 8.70; in assay [1], 7.30 to 7.52.
As for `C=CC(=O)Nc1cc(Nc2ncc(Cl)c(Nc3ccccc3NS(=O)(=O)C(C)C)n2)c(OC)cc1N(C)CCN(C)C` [Example 5, N-(5-((5-chloro-4-((2-((1-methylethyl)sulfonamido)phenyl)amino)pyrimidin-2-yl)amino)-2-((2-(dimethylamino)ethyl)(methyl)amino)-4-methoxyphenyl)acrylamide], the pIC50 at HER2 A775_G776insYVMA was 7.47; at EGFR del19, > 9.00; at EGFR A763_Y764insFHEA, > 9.00; in assay [1], 7.30 to 7.52.
`C=CC(=O)Nc1cc(Nc2nccc(Nc3ccccc3NS(=O)(=O)c3ccccc3)n2)c(OC)cc1N(C)CCN(C)C` [Example 6, N-(2-((2-(dimethylamino)ethyl)(methyl)amino)-4-methoxy-5-((4-((2-(phenylsulfonamido)phenyl)amino)pyrimidin-2-yl)amino)phenyl)acrylamide]: the pIC50 on HER2 A775_G776insYVMA is 5.92; at EGFR del19, 8.15; at EGFR A763_Y764insFHEA, 7.70; in assay [1], 7.30 to 7.52.
Consider `C=CC(=O)Nc1cc(Nc2nccc(Nc3ccccc3NS(C)(=O)=O)n2)c(OC)cc1N(C)CCN(C)C` [Example 7, N-(2-((2-(dimethylamino)ethyl)(methyl)amino)-4-methoxy-5-((4-((2-(methylsulfonamido)phenyl)amino)pyrimidin-2-yl)amino)phenyl)acrylamide], for which the negative-log IC50 (pIC50) on HER2 A775_G776insYVMA was 6.55; at EGFR del19, > 9.00; at EGFR A763_Y764insFHEA, 8.30; in assay [1] it was 7.30 to 7.52.
`C=CC(=O)Nc1cc(Nc2ncc(F)c(Nc3ccccc3NS(C)(=O)=O)n2)c(OC)cc1N(C)CCN(C)C` [Example 11, N-(2-((2-(dimethylamino)ethyl)(methyl)amino)-5-((5-fluoro-4-((2-(methylsulfonamido)phenyl)amino)pyrimidin-2-yl)amino)-4-methoxyphenyl)acrylamide]: the pIC50 at HER2 A775_G776insYVMA is 7.15; on EGFR del19, > 9.00; on EGFR A763_Y764insFHEA it was 9.00; in assay [1], < 7.00; in assay [2], < 7.00.
For `C=CC(=O)Nc1cc(Nc2ncc(C)c(Nc3ccccc3NS(C)(=O)=O)n2)c(OC)cc1N(C)CCN(C)C` [Example 16, N-(2-((2-(dimethylamino)ethyl)(methyl)amino)-4-methoxy-5-((5-methyl-4-((2-(methylsulfonamido)phenyl)amino)pyrimidin-2-yl)amino)phenyl)acrylamide], the pIC50 is 7.29 on HER2 A775_G776insYVMA; > 9.00 at EGFR del19; 8.70 on EGFR A763_Y764insFHEA; < 7.00 in assay [1]; < 7.00 in assay [2].
`C=CC(=O)Nc1cc(Nc2ncc(Cl)c(Nc3ccccc3NS(C)(=O)=O)n2)c(OC)cc1N(C)CCN1CCCC1` [Example 21, N-(5-((5-chloro-4-((2-(methylsulfonamido)phenyl)amino)pyrimidin-2-yl)amino)-4-methoxy-2-(methyl(2-(pyrrolidin-1-yl)ethyl)amino)phenyl)acrylamide]: the pIC50 at HER2 A775_G776insYVMA was 7.34; on EGFR del19, 9.00; on EGFR A763_Y764insFHEA, 8.52; in assay [1] it was 7.30 to 7.52.
As for `C=CC(=O)Nc1cc(Nc2ncc(Cl)c(Nc3cccc4c3N(S(C)(=O)=O)CC4)n2)c(OC)cc1N(C)CCN1CCCCC1` [Example 72, N-(5-((5-chloro-4-((1-(methylsulfonyl)indolin-7-yl)amino)pyrimidin-2-yl)amino)-4-methoxy-2-(methyl(2-(piperidin-1-yl)ethyl)amino)phenyl)acrylamide], the pIC50 at HER2 A775_G776insYVMA was 9.00; on EGFR del19, > 9.00; at EGFR A763_Y764insFHEA, > 9.00; in assay [2], 7.52 to 8.00; in assay [3] it was > 8.00.
